Measured values as given in US20190134047A1, “A MIXTURE OF D-SERINE AND CAFFEINE FOR OBTAINING THE EFFECT OF PREVENTING THE DECLINE OF LEARNING ABILITY OR MEMORY CAUSED BY STRESS AND ENHANCING LEARNING ABILITY OR MEMORY, AND A FUNCTIONAL FOOD COMPOSITION CONTAINING THE SAME” (ADVANCED NT, priority 2016, published 2019).

System: C57BL/6 male mouse
Test: Novel object recognition test with restraint stress
Format: in vivo
Conditions: for preference for objects A and B on the fourth day (training day): abdominal injection 30 min before; for preference for objects A and B on the fourth day (training day) / preference for new object C on the fifth day after 24 hours: + restraint stress, mean±standard error; for preference for new object C on the fifth day after 24 hours: abdominal injection
Method: In all experiments, C57BL/6 male mouse, a kind of B6 mouse of 8-12 weeks old, were used. The experimental groups were divided into 7 experimental groups according to whether they were stressed or not and the type and weight of injected drugs as follows. […] Immediately after each behavioral experiment, restraint stress was applied by placing the mouse in a 50 mL tube pre-pierced with about 9 pores for 90 minutes. A mouse was placed in an open-field box (40 cm×40 cm×40 cm) made of acryl for 15 minutes every day for 3 days to fit and stabilize to the box. On the training day of the fourth day, two different objects made of acryl (objects A and B) were placed at regular intervals in the box and the mice were trained to freely search objects A and B for 10 minutes. […] The search time for each object (A and C or B and C) was quantified and the preference for the object was expressed as a ratio of search time (Preference (%)=C/(A+C)*100). […] To compare the results of the said two behavioral experiments, SPSS 21.0 (SPSS Inc, Chicago, Ill.) and Student's T-test and one-way ANOVA were used for statistical analysis.

[1] = D-serine 500 mg (second weight)

| SMILES | preference for objects A and B on the fourth day (training day) (Caffeine 10 mg) [%] | preference for new object C on the fifth day after 24 hours (Caffeine 10 mg) [%] | preference for new object C, comparison among drug groups (D-Serine 50 mg + restraint stress as printed, 24-hour results, one-way ANOVA) | preference for objects A and B on the fourth day (training day) (D-serine 50 mg (first weight)) [%] | preference for new object C on the fifth day after 24 hours (D-serine 50 mg (first weight)) [%] | preference for objects A and B on the fourth day (training day) [1] [%] | preference for new object C on the fifth day after 24 hours [1] [%] |
| --- | --- | --- | --- | --- | --- | --- | --- |
| Cn1c(=O)c2c(ncn2C)n(C)c1=O [caffeine] | 49.92±2.75 | 62.06±2.27 |  |  |  |  |  |
| N[C@H](CO)C(=O)O [D-serine] |  |  | highest preference | 52.12±2.81 | 63.63±3.94 | 47.83±3.97 | 67.55±3.46 |
